Measured values reported in patent US12673954B2 (BRISTOL-MYERS SQUIBB COMPANY, priority 2021, dated 2026).

How the values were obtained:
[1] = system: NF-κB pathway, THP1-Dual™ cells; assay: STING reporter assay in THP1-Dual cells, NF-κB pathway (SEAP, QUANTI-Blue); format: cell-based, human; conditions: Homo sapiens, THP1-Dual, 20 h, THP1-Dual cells, 10% human plasma, 20 hours; SEAP; 100% activation = 100 μM cGAMP; read-out: NFkB (EC50 μM)
Outline: (§1)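 THP-1-derived dual-reporter cells treated with serially diluted compounds (final top concentration 100 μM) for 20 h at 37° C. NF-κB read as SEAP via QUANTI-Blue at OD620; IRF read as Lucia luminescence via QUANTI-Luc after 5 min. 100% activation set by 100 μM cGAMP, baseline by DMSO.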

[2] = system: IRF pathway, THP1-Dual™ cells; assay: STING reporter assay in THP1-Dual cells, IRF pathway (Lucia luciferase, QUANTI-Luc); format: cell-based, human; conditions: Homo sapiens, THP1-Dual, 20 h, THP1-Dual cells, 10% human plasma, 20 hours; Lucia luciferase; 100% activation = 100 μM cGAMP; read-out: IRF (EC50 μM)
Outline: as §1

Row | EC50 [1] | EC50 [2] | SMILES
1 | 0.37 µM | 0.3 µM | COC(=O)c1cc(C)cc2c(Cl)c(CNC(=O)c3cncc4cccnc34)oc12 [EXAMPLE 118, methyl 2-((1,6-naphthyridine-8-carboxamido)methyl)-3-chloro-5-methylbenzofuran-7-carboxylate]
2 | 2.6 µM | 2.6 µM | COC(=O)c1cc(C)cc2c(Cl)c(CNC(=O)c3cnn4cc(C)cnc34)oc12 [EXAMPLE 119, Methyl 3-chloro-5-methyl-2-((6-methylpyrazolo[1,5-a]pyrimidine-3-carboxamido)methyl)benzofuran-7-carboxylate]
3 | 0.28 µM | 0.4 µM | COC(=O)c1cc(C)cc2c(Br)c(CNC(=O)c3cnn4cccnc34)oc12 [EXAMPLE 121, Methyl 3-bromo-5-methyl-2-((pyrazolo[1,5-a]pyrimidine-3-carboxamido)methyl)benzofuran-7-carboxylate]
4 | 0.54 µM | 0.53 µM | COC(=O)c1cc(C)cc2c(C)c(CNC(=O)c3cnn4cccnc34)oc12 [EXAMPLE 122, Methyl 3,5-dimethyl-2-((pyrazolo[1,5-a]pyrimidine-3-carboxamido)methyl)benzofuran-7-carboxylate]
5 | 5.9 µM | 4.3 µM | COC(=O)c1cc(C)cc2c(C(F)(F)F)c(CNC(=O)c3cnn4cccnc34)oc12 [EXAMPLE 123, Methyl 5-methyl-2-((pyrazolo[1,5-a]pyrimidine-3-carboxamido)methyl)-3-(trifluoromethyl)benzofuran-7-carboxylate]
6 | 6.7 µM | 5.7 µM | C=Cc1c(CNC(=O)c2cnn3cccnc23)oc2c(C(=O)OC)cc(C)cc12 [EXAMPLE 124, Methyl 5-methyl-2-((pyrazolo[1,5-a]pyrimidine-3-carboxamido)methyl)-3-vinylbenzofuran-7-carboxylate]
7 | 4.4 µM | 3.9 µM | COC(=O)c1cc(F)c(F)c2cc(CN3CCc4ccncc4C3=O)oc12 [EXAMPLE 125, Methyl 4,5-difluoro-2-((1-oxo-3,4-dihydro-2,7-naphthyridin-2(1H)-yl)methyl)benzofuran-7-carboxylate]
8 | 1.6 µM | 1.4 µM | COC(=O)c1c(F)c(F)cc2cc(CNC(=O)c3cnn4cccnc34)oc12 [EXAMPLE 126, Methyl 5,6-difluoro-2-((pyrazolo[1,5-a]pyrimidine-3-carboxamido)methyl)benzofuran-7-carboxylate]
9 | 5.6 µM | 4.7 µM | COC(=O)c1c(O)c(Cl)cc2cc(CNC(=O)c3cnn4cccnc34)oc12 [EXAMPLE 127, Methyl 5-chloro-6-hydroxy-2-((pyrazolo[1,5-a]pyrimidine-3-carboxamido)methyl)benzofuran-7-carboxylate]
10 | > 100 µM | 90 µM | COc1ccn2ncc(C(=O)NCc3cc4cc(Cl)cc(C(=O)O)c4o3)c2n1 [EXAMPLE 139, 5-Chloro-2-((5-methoxypyrazolo[1,5-a]pyrimidine-3-carboxamido)methyl)benzofuran-7-carboxylic acid]
11 | 52 µM | 63 µM | Cc1cc(C(=O)O)c2oc(CNC(=O)c3cnn4cccnc34)cc2c1 [EXAMPLE 158, 5-methyl-2-((pyrazolo[1,5-a]pyrimidine-3-carboxamido)methyl)benzofuran-7-carboxylic acid]
12 | 74 µM | 62 µM | O=C(O)c1cc(F)cc2c(Cl)c(CNC(=O)c3cnn4cccnc34)oc12 [EXAMPLE 172, 3-chloro-5-fluoro-2-((pyrazolo[1,5-a]pyrimidine-3-carboxamido)methyl)benzofuran-7-carboxylic acid]
13 | 91 µM | 83 µM | O=C(O)c1cc(Cl)cc2c(Cl)c(CNC(=O)c3cnn4cccnc34)oc12 [EXAMPLE 174, 3,5-Dichloro-2-((pyrazolo[1,5-a]pyrimidine-3-carboxamido)methyl)benzofuran-7-carboxylic acid]
14 | > 100 µM | 87 µM | Cc1cc(C(=O)O)c2oc(CNC(=O)c3cnn4cc(C)cnc34)c(Cl)c2c1 [EXAMPLE 177, 3-Chloro-5-methyl-2-((6-methylpyrazolo[1,5-a]pyrimidine-3-carboxamido)methyl)benzofuran-7-carboxylic acid]
15 | 50 µM | 42 µM | Cc1cc(C(=O)O)c2oc(CNC(=O)c3cncc4cccnc34)c(Cl)c2c1 [EXAMPLE 178, 2-((1,6-naphthyridine-8-carboxamido)methyl)-3-chloro-5-methylbenzofuran-7-carboxylic acid]
16 | 94 µM | 79 µM | Cc1cc(C(=O)O)c2oc(CNC(=O)c3cncc4cccnc34)cc2c1 [EXAMPLE 192, 2-((1,6-naphthyridine-8-carboxamido)methyl)-5-methylbenzofuran-7-carboxylic acid]
17 | 65 µM | 44 µM | CCOC(=O)c1cccc2cc(CN3Cc4ccncc4C3=O)oc12 [EXAMPLE 203, Ethyl 2-((3-oxo-1,3-dihydro-2H-pyrrolo[3,4-c]pyridin-2-yl)methyl)benzofuran-7-carboxylate]

Row | EC50 [1] | EC50 [2] | SMILES
18 | 41 µM | 32 µM | O=C(OCC(F)(F)F)c1cccc2cc(CN3Cc4ccncc4C3=O)oc12 [EXAMPLE 204, 2,2,2-Trifluoroethyl 2-((3-oxo-1,3-dihydro-2H-pyrrolo[3,4-c]pyridin-2-yl)methyl)benzofuran-7-carboxylate]
19 | 9.9 µM | 9.8 µM | CCOC(=O)c1cccc2cc(CN3CCc4ccncc4C3=O)oc12 [EXAMPLE 205, Ethyl 2-((1-oxo-3,4-dihydro-2,7-naphthyridin-2(1H)-yl)methyl)benzofuran-7-carboxylate]
20 | 12 µM | 13 µM | CC(C)OC(=O)c1cccc2cc(CN3CCc4ccncc4C3=O)oc12 [EXAMPLE 206, Isopropyl 2-((1-oxo-3,4-dihydro-2,7-naphthyridin-2(1H)-yl)methyl)benzofuran-7-carboxylate]
21 | 17 µM | 9.2 µM | O=C(OC1CC1)c1cccc2cc(CN3CCc4ccncc4C3=O)oc12 [EXAMPLE 207, Cyclopropyl 2-((1-oxo-3,4-dihydro-2,7-naphthyridin-2(1H)-yl)methyl)benzofuran-7-carboxylate]
22 | 19 µM | 18 µM | O=C(OC(C(F)(F)F)C(F)(F)F)c1cccc2cc(CN3CCc4ccncc4C3=O)oc12 [EXAMPLE 209]
23 | 31 µM | 23 µM | O=C(OCCO)c1cccc2cc(CN3CCc4ccncc4C3=O)oc12 [EXAMPLE 211, 2-Hydroxyethyl 2-((1-oxo-3,4-dihydro-2,7-naphthyridin-2(1H)-yl)methyl)benzofuran-7-carboxylate]
24 | 58 µM | 52 µM | CC(F)(F)COC(=O)c1cccc2cc(CN3CCc4ccncc4C3=O)oc12 [EXAMPLE 212, 2,2-Difluoropropyl 2-((1-oxo-3,4-dihydro-2,7-naphthyridin-2(1H)-yl)methyl)benzofuran-7-carboxylate]
25 | 86 µM | 79 µM | O=C(OCC(F)(F)C(F)F)c1cccc2cc(CN3CCc4ccncc4C3=O)oc12 [EXAMPLE 213, 2,2,3,3-Tetrafluoropropyl 2-((1-oxo-3,4-dihydro-2,7-naphthyridin-2(1H)-yl)methyl)benzofuran-7-carboxylate]
26 | 9.3 µM | 8.2 µM | O=C(OCC(F)F)c1cccc2cc(CN3CCc4ccncc4C3=O)oc12 [EXAMPLE 214, 2,2-Difluoroethyl 2-((1-oxo-3,4-dihydro-2,7-naphthyridin-2(1H)-yl)methyl)benzofuran-7-carboxylate]
27 | 14 µM | 12 µM | O=C(OCC(F)(F)F)c1cccc2cc(CN3CCc4ccncc4C3=O)oc12 [EXAMPLE 215, 2,2,2-Trifluoroethyl 2-((1-oxo-3,4-dihydro-2,7-naphthyridin-2(1H)-yl)methyl)benzofuran-7-carboxylate]
28 | 17 µM | 12 µM | O=C(NCc1cc2cccc(C(=O)OCC(F)(F)F)c2o1)c1cnccn1 [EXAMPLE 216, 2,2,2-Trifluoroethyl 2-((pyrazine-2-carboxamido)methyl)benzofuran-7-carboxylate]
29 | 1.6 µM | 1.3 µM | O=C(OCC(F)(F)F)c1cccc2cc(CNC(=O)c3cnn4cccnc34)oc12 [EXAMPLE 217, 2,2,2-Trifluoroethyl 2-((pyrazolo[1,5-a]pyrimidine-3-carboxamido)methyl)benzofuran-7-carboxylate]
30 | 4.4 µM | 5.5 µM | CC(OC(=O)c1cccc2cc(CNC(=O)c3cnn4cccnc34)oc12)C(F)(F)F (stereo not drawn) [EXAMPLE 218, 1,1,1-Trifluoropropan-2-yl 2-((pyrazolo[1,5-a]pyrimidine-3-carboxamido)methyl)benzofuran-7-carboxylate]
31 | 10 µM | 7.7 µM | Cc1ccn2ncc(C(=O)NCc3cc4cccc(C(=O)OCC(F)(F)F)c4o3)c2n1 [EXAMPLE 219, 2,2,2-Trifluoroethyl 2-((5-methylpyrazolo[1,5-a]pyrimidine-3-carboxamido)methyl)benzofuran-7-carboxylate]
32 | 4.8 µM | 3.8 µM | Cc1cnc2c(C(=O)NCc3cc4cccc(C(=O)OCC(F)(F)F)c4o3)cnn2c1 [EXAMPLE 220, 2,2,2-Trifluoroethyl 2-((6-methylpyrazolo[1,5-a]pyrimidine-3-carboxamido)methyl)benzofuran-7-carboxylate]
33 | 83 µM | 42 µM | Cc1ccnc2c(C(=O)NCc3cc4cccc(C(=O)OCC(F)(F)F)c4o3)cnn12 [EXAMPLE 221, 2,2,2-Trifluoroethyl 2-((7-methylpyrazolo[1,5-a]pyrimidine-3-carboxamido)methyl)benzofuran-7-carboxylate]
